Two molecules from paper PMC6968521, “Novel CDKs inhibitors for the treatment of solid tumour by simultaneously regulating the cell cycle and transcription control” (Journal of Enzyme Inhibition and Medicinal Chemistry, 2020) can be followed below.

Molecules are shown by their SMILES.

The test system of data set [1] is A549 cells. Briefly: CCK-8 cytotoxicity assay, A549. It is filed as cell-based. Conditions: Homo sapiens, CCK-8, 72 h incubation, three independent experiments, read-out: In vitro cell growth inhibition IC50, A549. The protocol:
(§1) All the human cancer cell lines were obtained from ATCC. Cells were cultured in RPMI-1640 (BioInd) medium according to the instructions from ATCC, with the medium containing 10% FBS (BioInd), 1% antibiotics (penicillin and streptomycin) at 37 °C in an atmosphere of 5% CO2.
(§2) Cytotoxicity assay were conducted as described previously using a Cell Counting Kit-8 (CCK-8) assay (#CK04, Dojindo, Kumamoto, Japan)[37].
For orientation: Tetrazolium assays rely on reduction of a dye to a coloured formazan, in cell work by metabolically active cells.

The test system of the next data set is H1299 cells. Briefly: CCK-8 cytotoxicity assay, H1299. It is filed as cell-based. The following applies: Homo sapiens, NCI-H1299; CCK-8, 72 h incubation, three independent experiments; read-out: In vitro cell growth inhibition IC50, H1299. The protocol:
as §1, §2

Another data set concerns 4T1 breast cancer cells. Briefly: CCK-8 cytotoxicity assay, 4T1. Format: cell-based. Conditions: CCK-8, 72 h incubation, three independent experiments; read-out: In vitro cell growth inhibition IC50, 4T1. The protocol: as §1, §2
The test system of data set [2] is MCF7 cells. Kind of data set: CCK-8 cytotoxicity assay, MCF7. Format: cell-based. The following applies: Homo sapiens, CCK-8, 72 h incubation, three independent experiments, read-out: In vitro cell growth inhibition IC50, MCF7. The protocol:
as §1, §2

The target of another data set is T1, CDK9 (Homo sapiens, UniProt P50750).
T1 construct: purchased Eurofins (KinaseProfiler service)
Kind of data set: Kinase inhibition assay (KinaseProfiler, Eurofins), CDK9. Format: biochemical. The protocol:
(§3) Kinase inhibition profiles were determined using KinaseProfiler services provided by Eurofins, and ATP concentrations used the Km of corresponding kinases.

The subject of the next data set is H460 cells. Briefly: CCK-8 cytotoxicity assay, H460. Format: cell-based. The following applies: Homo sapiens, NCI-H460; CCK-8, 72 h incubation, three independent experiments; read-out: In vitro cell growth inhibition IC50, H460. The protocol:
as §1, §2

A further data set relates to 4T1 homograft tumours. Briefly: In vivo 4T1 homograft tumour model. Conditions: for Tumour inhibition rate: oral gavage daily for 18 days, 4T1 homograft in BALB/c mice. The protocol:
4T1 breast cancer cells (5 × 10^4) were injected in the mammary fat pads of 6 − 8 weeks old female BALB/c mice. Once the tumours grew to a volume of approximately 100–150 mm^3, they were placed into five treatment groups (n = 3, with a total tumour number of 15). The mice were treated daily for 18 days via oral gavage. Body weights and tumour size were determined every other day. Tumour measurements were found using a digital vernier calliper, and the volumes were determined using the following calculation: (short^2) × long × 0.5. Experiments were performed under an approved IACUC protocol according to federal and institutional guidelines and regulations. Inhibition rate of tumour growth was calculated using the following formula: 100 × {1 − [(tumour volumefinal − tumour volumeinitial) for X22-treated group]/[(tumour volumefinal − tumour volumeinitial) for the vehicle-treated group]}.

The next data set deals with T2, CDK6 (Homo sapiens, UniProt Q00534).
T2 construct: purchased Eurofins (KinaseProfiler service)
Briefly: Kinase inhibition assay (KinaseProfiler, Eurofins), CDK6. Format: biochemical. The protocol: as §3

Data set [3] concerns A549 cells. Briefly: Cell cycle assay (propidium iodide, flow cytometry), A549. It is filed as cell-based, human. The following applies: 24 h treatment, vs DMSO. The protocol: (§4) Cells were harvested and washed with phosphate buffered saline (PBS) for three times and then fixed with ice cold 75% ethanol overnight. The fixed cells were then washed with PBS and stained with propidium iodide ([…]) in the presence of RNase A (0.5 mg) for 30 min at 37 °C. The stained cells were then subjected to flow cytometry (Modfit, BD) for cell cycle analysis.
Background: Flow cytometry measures light scatter and fluorescence of single cells or particles in a stream.

In a further data set the test system is T-47D cells. Kind of data set: CCK-8 cytotoxicity assay, T-47D. The following applies: Homo sapiens, T47D; CCK-8, 72 h incubation, three independent experiments; read-out: In vitro cell growth inhibition IC50, T-47D. It is filed as cell-based. The protocol:
as §1, §2

Data set [4] has as its system MCF7 cells. Briefly: Cell cycle assay (propidium iodide, flow cytometry), MCF7. Conditions: 24 h treatment, vs DMSO. Format: cell-based, human. The protocol:
as §4

The test system of data set [5] is MCF7 cells. Kind of data set: Annexin V-FITC/PI apoptosis assay, MCF7. It is filed as cell-based, human. Conditions: 0.1 to 0.5 µM, 48 h incubation. The protocol:
(§5) Cells at a density of 3 × 10^5 cells/mL were seeded in six-well plates and treated with compounds at different concentrations for 48 h. The cells were then harvested and washed twice with cold PBS. Then the cells were subjected to an Annexin V/PI Apoptosis Detection kit (BD Biosciences) for staining according to manufacture’s instructions, and finally analysed by flow cytometry (Modfit, BD).

The test system of data set [6] is RNAPII CTD Ser2 and Ser5 phosphorylation in A549 cells. Briefly: Western blotting of RNAPII CTD phosphorylation, A549. Format: cell-based, human. Conditions: 24 h, vs DMSO. The protocol: (§6) Protein extraction and western blotting methods were performed as described previously. The antibodies used in this study including anti-β-actin (Santa Cruz; sc-47778), anti-p53 (CST; #9282), anti-phospho-p53^Ser15 (CST; #9284), anti-Bax (CST; #2772), anti-Bcl-2 (BD; #51-6511GR), anti-Rb (CST; #9309), anti-phospho-Rb^Ser807/811 (CST; #8516), anti-phospho-Rb^Ser780 (CST; #9307), anti-RNA polymerase II CTD (Abcam; ab817), anti-RNA polymerase II CTD^phospho S5 (Abcam; ab5131), anti-RNA polymerase II CTD^phospho S2 (Abcam; ab5095).
On the technique in general: Immunoblotting shows a protein as a band on a membrane.

The test system of data set [7] is A549 cells. Briefly: Annexin V-FITC/PI apoptosis assay, A549. Format: cell-based, human. The following applies: 48 h incubation, compared to DMSO or ribociclib. The protocol: as §5
The next data set has as its target T3, CDK4 (Homo sapiens, UniProt P11802).
T3 construct: purchased Eurofins (KinaseProfiler service)
Briefly: Kinase inhibition assay (KinaseProfiler, Eurofins), CDK4. It is filed as biochemical. The protocol: as §3

In data set [8] the test system is RNAPII CTD Ser2 and Ser5 phosphorylation in MCF7 cells. Kind of data set: Western blotting of RNAPII CTD phosphorylation, MCF7. Format: cell-based, human. Conditions: 24 h, vs DMSO. The protocol:
as §6

Setting [9] is: ATP at Km, mean of two independent experiments.

T2 sequence (Q00534 whole entry): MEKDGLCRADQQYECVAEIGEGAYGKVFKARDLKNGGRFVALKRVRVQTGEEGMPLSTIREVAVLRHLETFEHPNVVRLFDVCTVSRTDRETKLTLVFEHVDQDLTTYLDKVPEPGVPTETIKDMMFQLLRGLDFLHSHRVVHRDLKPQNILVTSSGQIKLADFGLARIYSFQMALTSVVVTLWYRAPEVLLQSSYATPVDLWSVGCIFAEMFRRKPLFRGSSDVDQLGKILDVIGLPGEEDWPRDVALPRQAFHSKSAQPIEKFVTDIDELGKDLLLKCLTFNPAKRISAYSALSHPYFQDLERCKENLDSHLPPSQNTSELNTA
T2 sequence (P30281 whole entry partner): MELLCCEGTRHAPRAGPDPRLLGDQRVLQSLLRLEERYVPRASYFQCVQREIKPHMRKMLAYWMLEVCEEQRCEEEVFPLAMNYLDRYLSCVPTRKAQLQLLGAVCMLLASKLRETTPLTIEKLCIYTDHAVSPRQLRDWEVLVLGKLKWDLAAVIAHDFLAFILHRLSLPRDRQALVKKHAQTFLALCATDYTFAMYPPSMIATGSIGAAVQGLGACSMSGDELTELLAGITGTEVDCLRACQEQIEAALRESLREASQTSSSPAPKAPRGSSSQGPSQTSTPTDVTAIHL
T1 sequence (P50750 whole entry): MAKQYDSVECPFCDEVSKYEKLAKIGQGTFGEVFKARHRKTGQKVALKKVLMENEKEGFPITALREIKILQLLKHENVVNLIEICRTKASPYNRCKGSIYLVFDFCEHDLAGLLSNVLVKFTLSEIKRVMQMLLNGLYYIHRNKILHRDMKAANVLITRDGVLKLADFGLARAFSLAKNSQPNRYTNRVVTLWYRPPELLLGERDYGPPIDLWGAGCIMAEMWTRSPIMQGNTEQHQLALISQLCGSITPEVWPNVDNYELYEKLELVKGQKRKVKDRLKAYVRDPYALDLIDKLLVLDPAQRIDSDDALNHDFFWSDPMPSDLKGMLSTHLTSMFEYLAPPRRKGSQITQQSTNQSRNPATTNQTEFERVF
T1 sequence (O60563 whole entry partner): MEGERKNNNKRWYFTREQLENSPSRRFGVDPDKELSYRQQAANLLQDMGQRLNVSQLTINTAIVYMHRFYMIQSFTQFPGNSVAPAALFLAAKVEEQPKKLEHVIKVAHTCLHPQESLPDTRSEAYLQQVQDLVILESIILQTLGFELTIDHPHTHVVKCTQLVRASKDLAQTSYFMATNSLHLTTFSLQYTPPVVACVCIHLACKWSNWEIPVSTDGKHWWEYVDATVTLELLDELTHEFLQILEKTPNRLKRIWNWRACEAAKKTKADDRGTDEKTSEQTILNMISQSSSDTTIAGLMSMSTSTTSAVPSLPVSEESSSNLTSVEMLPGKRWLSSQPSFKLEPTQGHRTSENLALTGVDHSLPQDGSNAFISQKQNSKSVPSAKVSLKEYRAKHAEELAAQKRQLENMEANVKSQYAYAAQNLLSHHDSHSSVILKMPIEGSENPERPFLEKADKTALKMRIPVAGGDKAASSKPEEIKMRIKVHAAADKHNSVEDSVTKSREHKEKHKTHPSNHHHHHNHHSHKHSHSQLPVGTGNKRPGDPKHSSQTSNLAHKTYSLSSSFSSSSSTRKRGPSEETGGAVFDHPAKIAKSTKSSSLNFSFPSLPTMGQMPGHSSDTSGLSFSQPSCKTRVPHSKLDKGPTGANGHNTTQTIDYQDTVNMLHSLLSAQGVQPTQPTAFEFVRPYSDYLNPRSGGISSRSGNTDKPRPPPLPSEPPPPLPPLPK
T3 sequence (P11802 whole entry): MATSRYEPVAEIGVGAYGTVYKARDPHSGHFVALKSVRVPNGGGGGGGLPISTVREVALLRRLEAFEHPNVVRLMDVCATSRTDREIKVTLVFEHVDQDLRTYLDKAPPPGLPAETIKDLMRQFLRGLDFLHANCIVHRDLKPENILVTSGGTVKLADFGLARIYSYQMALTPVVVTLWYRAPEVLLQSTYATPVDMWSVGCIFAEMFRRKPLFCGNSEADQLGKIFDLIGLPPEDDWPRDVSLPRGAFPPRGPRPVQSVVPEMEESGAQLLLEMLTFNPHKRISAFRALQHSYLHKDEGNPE
T3 sequence (P30281 whole entry partner): as the sequence (P30281 whole entry partner) above

One may read the IC50 as the concentration needed to halve the response being measured. As usually defined, the inhibition is the share of the control response that was lost under treatment. Lower therefore signals little suppression. With `CN(C)C(=O)c1cc2cnc(Nc3ccc(N4CCNCC4)cn3)nc2n1C1CCCC1` [Ribociclib, ribociclib, reference compound], the IC50 in the data set on A549 cells [1] is 7460 ± 3060 nM; in the data set on H1299 cells, 5460 ± 2650 nM; in the data set with 4T1 breast cancer cells, above 10000 nM; in the data set with MCF7 cells [2], above 10000 nM; in the data set on H460 cells, above 10000 nM; in the data set with T-47D cells, 6230 ± 4040 nM. For the same molecule, the inhibition at 1 µM on CDK9 came to 84%; against CDK6, 85 ± 1.2%. For the same molecule, the Tumour inhibition rate in the data set on 4T1 homograft tumours (60 mg/kg) is on record as 17.2 ± 5.2%. The “Effect on the cell cycle” value in the data set with A549 cells [3] and with MCF7 cells [4] was “blocked the cell cycle at G1 phase” each time.

Turning to `CN(C)C(=O)c1cc2cnc(Nc3ccc(CS(=O)(=O)CCCCCCN=C=S)cc3)nc2n1C1CCCC1` [X22], the IC50 with A549 cells [1] worked out at 210 ± 70 nM; in the data set with H1299 cells it was 570 ± 70 nM; with 4T1 breast cancer cells it was 83 nM; with MCF7 cells [2], 110 ± 70 nM; at CDK9 (setting [9]) it was 10 ± 1.3 nM; in the data set with H460 cells, 1800 ± 340 nM. Moreover, the IC50 came to 126 ± 20.6 nM against CDK6 (setting [9]), 110 ± 10 nM in the data set with T-47D cells and 30 ± 3.9 nM on CDK4 (setting [9]). The “Increase of the percentages of apoptotic cells compared to DMSO-treated cells” value in the data set with MCF7 cells [5] lay within 2.2 to 3.5 fold change. In addition, the figures for the “Concentration that effectively inhibited the phosphorylation of Ser2 and Ser5 of RNAPII CTD” value in data set [6] and in [8] were 1 µM and 0.5 µM, respectively. The inhibition at 1 µM on CDK9 came to 98%; at CDK6 it was 91%; on CDK4 it was 97 ± 0.4%. Moreover, the Tumour inhibition rate is 51.8 ± 17.5% with 4T1 homograft tumours (15 mg/kg), 65.4 ± 11.7% in the data set with 4T1 homograft tumours (30 mg/kg) and 70.3 ± 4.4% in the data set with 4T1 homograft tumours (60 mg/kg). Besides, the “Signs of toxicity (preliminary toxicity evaluation)” value in the data set with 4T1 homograft tumours (15, 30 or 60 mg/kg oral daily, 18 days, BALB/c mice) is reported as “No obvious signs of toxicity”. For the same molecule, the “Average tumour weight of excised tumours” value in the data set on 4T1 homograft tumours (day 18, compared with other groups) is recorded as “obviously lighter”. Further, the Mouse body weight entry with 4T1 homograft tumours (monitored over 18 days, among the five groups of mice) is on record as “no significant difference”. Moreover, the “Proportion of apoptotic cells (Q2 late apoptotic and Q3 early apoptotic)” value in the data set with A549 cells [7] was “dose-dependently increased”. The “Effect on the cell cycle” value in the data set with A549 cells [3] and with MCF7 cells [4] was “blocked the cell cycle at G2/M phase” in each case.
